In patent US20080161367A1, “Insecticidal Mixtures” (BASF Aktiengesellschaft, priority 2005, published 2008):

How the values were obtained:
[1] = system: Western corn rootworm larvae (Diabrotica virgifera virgifera); assay: Seed treatment of field corn seeds, Western corn rootworm larval mortality; assay type: in vivo; conditions: corn seed treatment at the rate printed in the row (fipronil 0.005, clothianidin 0.05 g a.i./100 kg seed); 2nd instar larvae; mortality 1 day after infestation, adjusted for untreated controls
Description: (§1) Each mixture partner has been evaluated separately at the same rates as used in the mixtures. Synergism was determined by comparing the expected biological effect on plant health or on disease control from the mixture based on the individual effects from the separate partners to the biological effect observed with the mixture. Abbott's formula has be used to make this comparison.
Field corn seeds (Zea mays) were treated with a mixture of commercially available fipronil SC formulation (REGENT® 4 SC—479 g a.i./L) at rates of 0.005 g ai/100 kg seed with commercially available clothianidin formulation (PONCHO® 600—600 g a.i./L) at 0.05 g ai/100 kg seed. In addition, there was a treatment with each mixture partner at its respective solo rate. The carrier for all treatments was water. The respective formulation(s) and water were mixed in a 20 ml vial. Then 25 seeds were added, and the vial was vortexed. After treatment, seeds were allowed to dry. […] Petri plates were incubated at 26° C., and insect mortality was evaluated 1 day later. Percent mortalities were calculated adjusting for any mortality in the untreated controls.
The expected percent mortality for the mixture was calculated based on the percent mortalities observed when each mixture partner was applied solo at the rate it was applied in the mixture using Abbott's formula as follows: […]

[2] = system: Colorado potato beetle larvae (Leptinotarsa decemlineata); assay: Foliar insecticidal activity on eggplant, Colorado potato beetle feeding damage; assay type: in vivo; conditions: foliar spray on eggplant at 0.05 ppm each; 2nd instar larvae; evaluated 3 days later, relative to untreated controls
Description: as §1
The foliage of eggplant plants (Solanum melongena, variety Black Beauty) at the 4th to 5th true-leaf stage was treated with a mixture of commercially available fipronil SC formulation (REGENT® 4 SC, 479 g a.i./L-) at 0.05 ppm with commercially available clothianidin formulation (PONCHO® 600, 600 g a.i./L) at 0.05 ppm. In addition, there was a treatment with each mixture partner at its respective solo rate. Treatment was by spraying the leaves to near run-off. The carrier for all treatments was water. Two leaves on each of three plants were sprayed per treatment. […] Insect feeding damage to the foliage was evaluated 3 days later. Percent reductions in insect feeding damage were calculated based on the untreated controls.
The expected reduction in feeding damage for the mixture was calculated based on the percent reductions observed when each mixture partner was applied solo at the rate it was applied in the mixture using Abbott's formula as follows: […]

| SMILES | Actual Mixture Response [% Larval Mortality] [1] | Actual Mixture Response [% Reduction in Insect Feeding Injury] [2] |
| --- | --- | --- |
| CN/C(=N\[N+](=O)[O-])NCc1cnc(Cl)s1 [Clothianidin, clothianidin] | 14% | 21% |
| N#Cc1nn(-c2c(Cl)cc(C(F)(F)F)cc2Cl)c(N)c1[S+]([O-])C(F)(F)F (stereo not shown) [Fipronil, fipronil] | 0% | 0% |
